Reference: patent US9708314B2, “Heterocyclic amide compound” (NISSAN CHEMICAL INDUSTRIES, LTD., priority 2013, dated 2017)

Assays:
Format in all cases: in vivo
Glycine max = test: Test Example 4: effect on crop by application to foliage (diluvial soil, plastic box); details: application to foliage, application herbicide amount 320 g/ha
Procedure, shortened: (§1)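 Scores run from 0 (herbicidal ratio ≤5%) to 5 (≥90%, almost fully withered) and were assessed three weeks after foliar spraying. Seedlings had been raised for 14 days at 25-30° C in sterilized diluvial soil before treatment, with the emulsion diluted in water to the stated g/ha dose.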

[1] = tested on: directly sowed Oryza sativa; test: as above; details: application to foliage, application herbicide amount 320 g/ha
Procedure, shortened: as §1

Triticum aestivum = test: as above; details: application to foliage, application herbicide amount 320 g/ha
Procedure, shortened: as §1

Brassica campestris L. = test: as above; details: application to foliage, application herbicide amount 320 g/ha
Procedure, shortened: as §1

Zea mays = test: as above; details: application to foliage, application herbicide amount 320 g/ha
Procedure, shortened: as §1

[2] = tested on: Beta vulgaris ssp. vulgaris; test: as above; details: application to foliage, application herbicide amount 320 g/ha
Procedure, shortened: as §1

Monochoria vaginalis = test: Test Example 1: herbicidal activity, application before weed generation in submerged conditions; details: Application herbicide amount 320 g/ha; Seventeenth Table
Procedure, shortened: (§2)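 Alluvial soil in Wagner pots flooded to 4 cm water depth; weed seeds sown and 2.5 leaf stage rice seedlings transplanted. Emulsion diluted in water applied to water surface on sowing day at stated g/ha. Greenhouse 25° C. to 30° C.; effects scored 0–5 by herbicidal ratio after three weeks.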

[3] = tested on: Echinochloa oryzacola Vasing.; test: as above; details: Application herbicide amount 320 g/ha; Seventeenth Table
Procedure, shortened: as §2

Scirpus juncoides = test: as above; details: Application herbicide amount 320 g/ha; Seventeenth Table
Procedure, shortened: as §2

[4] = tested on: Echinochloa crus-galli var. crus-galli; test: Test Example 4: herbicidal effect by application to foliage (diluvial soil, plastic box); details: application to foliage, application herbicide amount 320 g/ha
Procedure, shortened: as §1

Amaranthus retroflexus = test: as above; details: application to foliage, application herbicide amount 320 g/ha
Procedure, shortened: as §1

Lolium multiflorum Lam. = test: as above; details: application to foliage, application herbicide amount 320 g/ha
Procedure, shortened: as §1

Alopecurus myosuroides = test: as above; details: application to foliage, application herbicide amount 320 g/ha
Procedure, shortened: as §1

Veronica persica = test: as above; details: application to foliage, application herbicide amount 320 g/ha
Procedure, shortened: as §1

Stellaria media = test: as above; details: application to foliage, application herbicide amount 320 g/ha
Procedure, shortened: as §1

Galium spurium = test: as above; details: application to foliage, application herbicide amount 320 g/ha
Procedure, shortened: as §1

Abutilon theophrasti = test: as above; details: application to foliage, application herbicide amount 320 g/ha
Procedure, shortened: as §1

Apera spica-venti. = test: as above; details: application to foliage, application herbicide amount 320 g/ha
Procedure, shortened: as §1

Avena fatua = test: as above; details: application to foliage, application herbicide amount 320 g/ha
Procedure, shortened: as §1

Digitaria ciliaris = test: as above; details: application to foliage, application herbicide amount 320 g/ha
Procedure, shortened: as §1

Chenopodium album = test: as above; details: application to foliage, application herbicide amount 320 g/ha
Procedure, shortened: as §1

Setaria viridis = test: as above; details: application to foliage, application herbicide amount 320 g/ha
Procedure, shortened: as §1

[5] = tested on: transplanted Oryza sativa; test: Test Example 1: effect on crop, application before weed generation in submerged conditions; details: Application herbicide amount 320 g/ha; Seventeenth Table
Procedure, shortened: as §2

| Structure (SMILES) | d: effect on crop, Glycine max (Glycine max) | b: effect on crop, directly sowed Oryza sativa [1] | e: effect on crop, Triticum aestivum (Triticum aestivum) | g: effect on crop, Brassica campestris L. (Brassica campestris L.) | c: effect on crop, Zea mays (Zea mays) | f: effect on crop, Beta vulgaris ssp. vulgaris [2] | C: Monochoria vaginalis (herbicidal effect grade) (Monochoria vaginalis) | A: Echinochloa oryzicola Vasing. (herbicidal effect grade) [3] | B: Scirpus juncoides (herbicidal effect grade) (Scirpus juncoides) | H: herbicidal effect on Echinochloa crus-galli var. crus-galli [4] | N: herbicidal effect on Amaranthus retroflexus (Amaranthus retroflexus) | K: herbicidal effect on Lolium multiflorum Lam. (Lolium multiflorum Lam.) | J: herbicidal effect on Alopecurus myosuroides (Alopecurus myosuroides) | R: herbicidal effect on Veronica persica (Veronica persica) | P: herbicidal effect on Stellaria media (Stellaria media) | Q: herbicidal effect on Galium spurium (Galium spurium) | M: herbicidal effect on Abutilon theophrasti (Abutilon theophrasti) | L: herbicidal effect on Apera spica-venti. (Apera spica-venti.) | I: herbicidal effect on Avena fatua (Avena fatua) | F: herbicidal effect on Digitaria ciliaris (Digitaria ciliaris) | further results |
| --- | --- | --- | --- | --- | --- | --- | --- | --- | --- | --- | --- | --- | --- | --- | --- | --- | --- | --- | --- | --- | --- |
| CCSc1nnc2c(C(=O)Nc3nnnn3C)ccc(C(F)(F)F)n12 [2-024] | 5 (Herbicidal ratio of 90% or more (almost completely withered)) | 5 (Herbicidal ratio of 90% or more (almost completely withered)) | 4 (Herbicidal ratio of 70% or more and less than 90%) | 5 (Herbicidal ratio of 90% or more (almost completely withered)) | 5 (Herbicidal ratio of 90% or more (almost completely withered)) | 5 (Herbicidal ratio of 90% or more (almost completely withered)) | 5 (Herbicidal ratio of 90% or more (almost completely withered)) | 5 (Herbicidal ratio of 90% or more (almost completely withered)) | 5 (Herbicidal ratio of 90% or more (almost completely withered)) | 5 (Herbicidal ratio of 90% or more (almost completely withered)) | 5 (Herbicidal ratio of 90% or more (almost completely withered)) | 4 (Herbicidal ratio of 70% or more and less than 90%) | 3 (Herbicidal ratio of 40% or more and less than 70%) | 5 (Herbicidal ratio of 90% or more (almost completely withered)) | 5 (Herbicidal ratio of 90% or more (almost completely withered)) | 4 (Herbicidal ratio of 70% or more and less than 90%) | 5 (Herbicidal ratio of 90% or more (almost completely withered)) | 5 (Herbicidal ratio of 90% or more (almost completely withered)) | 4 (Herbicidal ratio of 70% or more and less than 90%) | 5 (Herbicidal ratio of 90% or more (almost completely withered)) | O: herbicidal effect on Chenopodium album (Chenopodium album): 5 (Herbicidal ratio of 90% or more (almost completely withered)); G: herbicidal effect on Setaria viridis (Setaria viridis): 5 (Herbicidal ratio of 90% or more (almost completely withered)); a: transplanted Oryza sativa (effect on crop grade) [5]: 5 (Herbicidal ratio of 90% or more (almost completely withered)) |
| CC(C)Sc1nnc2c(C(=O)Nc3nnnn3C)ccc(C(F)(F)F)n12 [2-025] | 4 (Herbicidal ratio of 70% or more and less than 90%) | 5 (Herbicidal ratio of 90% or more (almost completely withered)) | 3 (Herbicidal ratio of 40% or more and less than 70%) | 4 (Herbicidal ratio of 70% or more and less than 90%) | 1 (Herbicidal ratio of 5% or more and less than 20%) | 5 (Herbicidal ratio of 90% or more (almost completely withered)) | 5 (Herbicidal ratio of 90% or more (almost completely withered)) | 5 (Herbicidal ratio of 90% or more (almost completely withered)) | 5 (Herbicidal ratio of 90% or more (almost completely withered)) | 5 (Herbicidal ratio of 90% or more (almost completely withered)) | 5 (Herbicidal ratio of 90% or more (almost completely withered)) | 3 (Herbicidal ratio of 40% or more and less than 70%) | 3 (Herbicidal ratio of 40% or more and less than 70%) | 5 (Herbicidal ratio of 90% or more (almost completely withered)) | 5 (Herbicidal ratio of 90% or more (almost completely withered)) | 4 (Herbicidal ratio of 70% or more and less than 90%) | 5 (Herbicidal ratio of 90% or more (almost completely withered)) | 4 (Herbicidal ratio of 70% or more and less than 90%) | 4 (Herbicidal ratio of 70% or more and less than 90%) | 5 (Herbicidal ratio of 90% or more (almost completely withered)) | O: herbicidal effect on Chenopodium album (Chenopodium album): 5 (Herbicidal ratio of 90% or more (almost completely withered)); G: herbicidal effect on Setaria viridis (Setaria viridis): 5 (Herbicidal ratio of 90% or more (almost completely withered)); a: transplanted Oryza sativa (effect on crop grade) [5]: 5 (Herbicidal ratio of 90% or more (almost completely withered)) |
| CCOCc1nnc2c(C(=O)Nc3nnnn3C)ccc(C(F)(F)F)n12 [2-026] | 5 (Herbicidal ratio of 90% or more (almost completely withered)) | 5 (Herbicidal ratio of 90% or more (almost completely withered)) | 3 (Herbicidal ratio of 40% or more and less than 70%) | 5 (Herbicidal ratio of 90% or more (almost completely withered)) | 2 (Herbicidal ratio of 20% or more and less than 40%) | 5 (Herbicidal ratio of 90% or more (almost completely withered)) | 4 (Herbicidal ratio of 70% or more and less than 90%) | 5 (Herbicidal ratio of 90% or more (almost completely withered)) | 5 (Herbicidal ratio of 90% or more (almost completely withered)) | 5 (Herbicidal ratio of 90% or more (almost completely withered)) | 5 (Herbicidal ratio of 90% or more (almost completely withered)) | 3 (Herbicidal ratio of 40% or more and less than 70%) | 4 (Herbicidal ratio of 70% or more and less than 90%) | 5 (Herbicidal ratio of 90% or more (almost completely withered)) | 5 (Herbicidal ratio of 90% or more (almost completely withered)) | 4 (Herbicidal ratio of 70% or more and less than 90%) | 5 (Herbicidal ratio of 90% or more (almost completely withered)) | 3 (Herbicidal ratio of 40% or more and less than 70%) | 3 (Herbicidal ratio of 40% or more and less than 70%) | 5 (Herbicidal ratio of 90% or more (almost completely withered)) | O: herbicidal effect on Chenopodium album (Chenopodium album): 5 (Herbicidal ratio of 90% or more (almost completely withered)); G: herbicidal effect on Setaria viridis (Setaria viridis): 4 (Herbicidal ratio of 70% or more and less than 90%); a: transplanted Oryza sativa (effect on crop grade) [5]: 4 (Herbicidal ratio of 70% or more and less than 90%) |
